Reference: patent publication US20220217999A1, “METHOD FOR PROTECTING PROTEIN FROM HEAT DAMAGE AND REDUCING RUMEN DEGRADABILITY OF METHIONINE” (AJINOMOTO CO., INC., priority 2019, published 2022)
Read-outs that look alike come from different tables or passages of the source.

Settings: for 16 hr. RUP, % of CP / Calculated IAP (intestinally available protein), g/100 g distillers grains / RUP digestibility, g/100 g RUP / RUP, % of DG Protein / Undigested CP, % of CP / Undigested CP, % of feed DM: 0.5 h 128° C. autoclave
Description: Using a sample of wet distillers grains (“DG”) was obtained from a commercial ethanol plant, treatments were applied in duplicates. The DG was treated with the three levels of DL-methionine shown in Table 1 and heated in an autoclave for 0.5 hour at 128° C. Following heat treatment, samples were dried in a forced oven set at 40° C. Dried samples were composited within treatment and analyzed for RUP and undigested total tract protein using a standard method.

## CSCCC(N)C(=O)O (racemic) [DL-Methionine]
1.0 wt. % DL-Methionine added to distillers grains
  16 hr. RUP, % of CP: 69.2 % of CP
1.0 wt. % DL-Methionine
  Calculated IAP (intestinally available protein), g/100 g distillers grains: 15.7 g/100 g distillers grains
  RUP digestibility, g/100 g RUP: 72.1 g/100 g RUP
  RUP, % of DG Protein: 72.8 % of DG Protein
  Undigested CP, % of CP: 19.3 % of CP
  Undigested CP, % of feed DM: 6.02 % of feed DM
1.5 wt. % DL-Methionine added to distillers grains
  16 hr. RUP, % of CP: 71.2 % of CP
1.5 wt. % DL-Methionine
  Calculated IAP (intestinally available protein), g/100 g distillers grains: 15.2 g/100 g distillers grains
  RUP digestibility, g/100 g RUP: 67.8 g/100 g RUP
  RUP, % of DG Protein: 74.8 % of DG Protein
  Undigested CP, % of CP: 22.9 % of CP
  Undigested CP, % of feed DM: 7.08 % of feed DM
2% DL-methionine
  calculated digestibility of RUP, higher compared with Control: 13.9%
2% DL-methionine sample
  total metabolically available protein, higher compared with Control: 17%
2.0 wt. % DL-Methionine added to distillers grains
  16 hr. RUP, % of CP: 67.2 % of CP
2.0 wt. % DL-Methionine
  Calculated IAP (intestinally available protein), g/100 g distillers grains: 16.0 g/100 g distillers grains
  RUP digestibility, g/100 g RUP: 72.7 g/100 g RUP
  RUP, % of DG Protein: 73.3 % of DG Protein
  Undigested CP, % of CP: 18.3 % of CP
  Undigested CP, % of feed DM: 5.85 % of feed DM
Highest level of DL-methionine
  total un-digested protein, lower compared with Control: 28%
